We go through 24 compounds from patent publication US10669283B2, “Compound and pharmacologically acceptable salt thereof” (MEIJI SEIKA PHARMA CO., LTD., priority 2016, dated 2020).

In series [1] the test system is PDE4. The series is described as follows: PDE4 inhibition, scintillation proximity assay (SPA). The following applies: scintillation proximity assay; class symbols; read-out: PDE4 Inhibitory Activity. Format: biochemical. A digest of the protocol: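 Compound pre-diluted 1:10 in 50 mM Tris-HCl pH 7.4, 8.3 mM MgCl2, 1.7 mM EGTA, 3 mg/mL BSA, then incubated with PDE4 and [2,8-3H]-cAMP for 120 min at room temperature. Product captured on ZnSO4-containing YSi-SPA beads for 15 min; radioactivity counted against no-enzyme blank and DMSO control.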

The nature of series [2]: Hepatic metabolic stability (rat liver microsome method). Format: in vitro ADME. As to conditions: rat liver microsomes 0.5 mg/mL, test substance 1 μM, NADPH 1 mM, 37° C., 30 minutes. On the procedure:
Metabolic stability in rat liver microsomes was evaluated by the following method. In 100 mM of potassium phosphate buffer solution (pH 7.4), liver microsomes (concentration at reaction: 0.5 mg/mL) and the test substance (concentration at reaction: 1 μM) were preincubated at 37° C. Five minutes later, 100 mM of potassium phosphate buffer (pH 7.4) solution of NADPH (concentration at reaction: 1 mM) was mixed thereto to start the reaction. After a predetermined time passed, acetonitrile was mixed to the reaction mixture to stop the reaction. Here, the reaction time was 0 and 30 minutes, and drug concentration measurement was performed for each time period using LC-MS. The % remaining value of the test compound was calculated from the value for 0 minutes and the value for 30 minutes, using the calculation formula below: % Remaining=(Value for 30 Minutes/Value for 0 Minutes)×100
The results of measuring the rat liver microsome metabolic Stability (% remaining for 30-minute reaction) for the test compound by the above method were evaluated in accordance with the following evaluated basis; A: a % remaining rate of 75% or more, B: 60% or more and less than 75%, C: 45% or more and less than 60%, and D: less than 45%.
Background: Liver microsomes are a subcellular fraction often used to study metabolism.

With `Cn1ccc(-c2ccc(OC(F)(F)C(C)(C)O)c3nc(N4CC5CCC(C4)N5)oc23)n1` [Example 328, 1-((2-(3,8-Diazabicyclo[3.2.1]octan-3-yl)-7-(1-methyl-1H-pyrazol-3-yl)benzo[d]oxazol-4-yl)oxy)-1,1-difluoro-2-methylpropan-2-ol], the IC50 in series [1] was less than 100 nM. In addition, in series [2], the “Residual ratio (% remaining for 30-minute reaction)” value is on record as “A (a % remaining rate of 75% or more)”.

For the compound `CC(C)(O)C(F)(F)Oc1ccc(-c2ccc(F)cn2)c2oc(N3CC4CC(C3)N4)nc12` [Example 329, 1-((2-(3,6-Diazabicyclo[3.1.1]heptan-3-yl)-7-(5-fluoropyridin-2-yl)benzo[d]oxazol-4-yl)oxy)-1,1-difluoro-2-methylpropan-2-ol], in series [1], the IC50 is less than 100 nM. For the same compound, the “Residual ratio (% remaining for 30-minute reaction)” value in series [2] is reported as “A (a % remaining rate of 75% or more)”.

As to `CC(C)(O)C(F)(F)Oc1ccc(-c2ncccn2)c2oc(N3CC4CCC(C3)N4)nc12` [Example 330, 1-((2-(3,8-diazabicyclo [3.2.1]octan-3-yl)-7-(pyrimidin-2-yl)benzo [d]oxazol-4-yl)oxy)-1,1-difluoro-2-methylpropan-2-ol], the IC50 in series [1] was less than 100 nM. Further, the “Residual ratio (% remaining for 30-minute reaction)” value in series [2] is “A (a % remaining rate of 75% or more)”.

For the compound `CC(C)(O)C(F)(F)Oc1ccc(-c2ccsn2)c2oc(N3CC4CCC(C3)N4)nc12` [Example 331, 1-((2-(3,8-diazabicyclo [3.2.1]octan-3-yl)-7-(isothiazol-3-yl)benzo [d]oxazol-4-yl)oxy)-1,1-difluoro-2-methylpropan-2-ol], the IC50 in series [1] is less than 100 nM. In series [2], the “Residual ratio (% remaining for 30-minute reaction)” value is “B (60% or more and less than 75%)”.

Take `CC(C)(O)C(F)(F)Oc1ccc(-c2ccc(F)cn2)c2oc(N3CC4CCC(C3)N4)nc12` [Example 332, 1-((2-(3,8-diazabicyclo [3.2.1]octan-3-yl)-7-(5-fluoropyridin-2-yl)benzo[d]oxazol-4-yl)oxy)-1,1-difluoro-2-methylpropan-2-ol]: in series [1], the IC50 was less than 100 nM. The “Residual ratio (% remaining for 30-minute reaction)” value in series [2] is on record as “A (a % remaining rate of 75% or more)”.

With `Cc1nsc(-c2ccc(OC(F)(F)C(C)(C)O)c3nc(N4CC5CCC(C4)N5)oc23)n1` [Example 333, 1-((2-(3,8-diazabicyclo [3.2.1]octan-3-yl)-7-(3-methyl-1,2,4-thiadiazol-5-yl)benzo[d]oxazol-4-yl)oxy)-1,1-difluoro-2-methylpropan-2-ol], the IC50 in series [1] is 100 to 1000 nM. Also, the “Residual ratio (% remaining for 30-minute reaction)” value in series [2] is “B (60% or more and less than 75%)”.

`O=S(=O)(c1ccc(-c2nccs2)c2oc(N3CC4CC(C3)N4)nc12)C(F)(F)F` [Example 334, 2-(3,6-diazabicyclo [3.1.1]heptan-3-yl)-7-(thiazol-2-yl)-4-((trifluoromethyl)sulfonyl) benzo[d]oxazole]: the IC50 in series [1] is less than 100 nM. In addition, the “Residual ratio (% remaining for 30-minute reaction)” value in series [2] was “B (60% or more and less than 75%)”.

With `N#Cc1ccc(-c2nccs2)c2oc(N3CC4CC(C3)N4)nc12` [Example 335, 2-(3,6-diazabicyclo [3.1.1]heptan-3-yl)-7-(thiazol-2-yl)benzo [d]oxazole-4-carbonitrile], in series [1], the IC50 was less than 100 nM. Also, the “Residual ratio (% remaining for 30-minute reaction)” value in series [2] was “A (a % remaining rate of 75% or more)”.

For `FC(F)(F)c1ccc(Oc2ccc(-c3nccs3)c3oc(N4CC5CC(C4)N5)nc23)nc1` [Example 336, 2-(3,6-diazabicyclo [3.1.1]heptan-3-yl)-7-(thiazol-2-yl)-4-((5-(trifluoromethyl)pyridin-2-yl)oxy)benzo[d]oxazole], the IC50 in series [1] was less than 100 nM. Further, the “Residual ratio (% remaining for 30-minute reaction)” value in series [2] is “B (60% or more and less than 75%)”.

In the case of `c1ccc(Oc2ccc(-c3nccs3)c3oc(N4CC5CC(C4)N5)nc23)nc1` [Example 337, 2-(3,6-diazabicyclo [3.1.1]heptan-3-yl)-4-(pyridin-2-yloxy)-7-(thiazol-2-yl)benzo[d] oxazole], in series [1], the IC50 was less than 100 nM. Also, the “Residual ratio (% remaining for 30-minute reaction)” value in series [2] is “B (60% or more and less than 75%)”.

For `c1cnc(Oc2ccc(-c3nccs3)c3oc(N4CC5CC(C4)N5)nc23)nc1` [Example 338, 2-(3,6-diazabicyclo [3.1.1]heptan-3-yl)-4-(pyrimidin-2-yloxy)-7-(thiazol-2-yl)benzo[d]oxazole], the IC50 in series [1] is less than 100 nM. The “Residual ratio (% remaining for 30-minute reaction)” value in series [2] was “A (a % remaining rate of 75% or more)”.

Consider `c1cnc(Oc2ccc(-c3nccs3)c3oc(N4CC5CC(C4)N5)nc23)cn1` [Example 339, 2-(3,6-diazabicyclo[3.1.1]heptan-3-yl)-4-(pyrazin-2-yloxy)-7-(thiazol-2-yl)benzo [d]oxazole], for which the IC50 in series [1] is less than 100 nM. In series [2], the “Residual ratio (% remaining for 30-minute reaction)” value was “B (60% or more and less than 75%)”.

Regarding `Cc1cc(C(F)(F)F)c(Oc2ccc(-c3nccs3)c3oc(N4CC5CC(C4)N5)nc23)nn1` [Example 340, 2-(3,6-diazabicyclo[3.1.1]heptan-3-yl)-4-((6-methyl-4-(trifluoro-methyl)pyridazin-3-yl)oxy)-7-(thiazol-2-yl)benzo[d] oxazole], in series [1], the IC50 is less than 100 nM. Also, the “Residual ratio (% remaining for 30-minute reaction)” value in series [2] was “A (a % remaining rate of 75% or more)”.

Take `OCc1ccc(Oc2ccc(-c3nccs3)c3oc(N4CC5CC(C4)N5)nc23)nc1` [Example 341, (6-((2-(3,6-diazabicyclo[3.1.1]heptan-3-yl)-7-(thiazol-2-yl)benzo[d]oxazol-4-yl)oxy)pyridin-3-yl)methanol]: the IC50 in series [1] is less than 100 nM. The “Residual ratio (% remaining for 30-minute reaction)” value in series [2] is “A (a % remaining rate of 75% or more)”.

In the case of `OCc1cnc(Oc2ccc(-c3nccs3)c3oc(N4CC5CC(C4)N5)nc23)c(C(F)(F)F)c1` [Example 342, (6-((2-(3,6-diazabicyclo[3.1.1]heptan-3-yl)-7-(thiazol-2-yl)benzo[d]oxazol-4-yl)oxy)-5-(trifluoromethyl)pyridin-3-yl) methanol], the IC50 in series [1] was less than 100 nM. For the same compound, the “Residual ratio (% remaining for 30-minute reaction)” value in series [2] was “B (60% or more and less than 75%)”.

Turning to `FC(F)(F)Oc1ccc(Oc2ccc(-c3nccs3)c3oc(N4CC5CC(C4)N5)nc23)nc1` [Example 343], the IC50 in series [1] is less than 100 nM. Also, the “Residual ratio (% remaining for 30-minute reaction)” value in series [2] is “B (60% or more and less than 75%)”.

In the case of `C[S+]([O-])c1ccc(-c2nccs2)c2oc(N3CC4CC(C3)N4)nc12` (stereo not drawn) [Example 346, 2-(3,6-diazabicyclo[3.1.1]heptan-3-yl)-4-(methylsulfinyl)-7-(thiazol-2-yl)benzo [d]oxazole], the IC50 in series [1] is less than 100 nM. Further, the “Residual ratio (% remaining for 30-minute reaction)” value in series [2] is on record as “A (a % remaining rate of 75% or more)”.

On to `CS(=O)(=O)c1ccc(-c2nccs2)c2oc(N3CC4CC(C3)N4)nc12` [Example 347, 2-(3,6-diazabicyclo[3.1.1]heptan-3-yl)-4-(methylsulfonyl)-7-(thiazol-2-yl)benzo [d]oxazole], for which the IC50 in series [1] was less than 100 nM. Besides, in series [2], the “Residual ratio (% remaining for 30-minute reaction)” value was “A (a % remaining rate of 75% or more)”.

With `OCCSc1ccc(-c2nccs2)c2oc(N3CC4CC(C3)N4)nc12` [Example 348, 2-((2-(3,6-diazabicyclo[3.1.1]heptan-3-yl)-7-(thiazol-2-yl)benzo [d]oxazol-4-yl)thio) ethan-1-ol], the IC50 in series [1] is less than 100 nM. The “Residual ratio (% remaining for 30-minute reaction)” value in series [2] is “B (60% or more and less than 75%)”.

`[O-][S+](CCO)c1ccc(-c2nccs2)c2oc(N3CC4CC(C3)N4)nc12` (stereo not drawn) [Example 349, 2-((2-(3,6-diazabicyclo[3.1.1]heptan-3-yl)-7-(thiazol-2-yl)benzo [d]oxazol-4-yl)sulfinyl)ethan-1-ol]: the IC50 in series [1] was less than 100 nM. Also, the “Residual ratio (% remaining for 30-minute reaction)” value in series [2] is reported as “A (a % remaining rate of 75% or more)”.

Turning to `O=S(=O)(CCO)c1ccc(-c2nccs2)c2oc(N3CC4CC(C3)N4)nc12` [Example 350, 2-((2-(3,6-diazabicyclo[3.1.1]heptan-3-yl)-7-(thiazol-2-yl)benzo [d]oxazol-4-yl)sulfonyl)ethan-1-ol], the IC50 in series [1] is less than 100 nM. Moreover, the “Residual ratio (% remaining for 30-minute reaction)” value in series [2] is listed as “A (a % remaining rate of 75% or more)”.

For `CS(=O)(=O)c1ccc(Oc2ccc(-c3nccs3)c3oc(N4CC5CC(C4)N5)nc23)nc1` [Example 352, 2-(3,6-diaza-bicyclo[3.1.1]heptan-3-yl)-4-((5-(methylsulfonyl)pyridin-2-yl)oxy)-7-(thiazol-2-yl)benzo [d]oxazole], the IC50 in series [1] was less than 100 nM. For the same compound, the “Residual ratio (% remaining for 30-minute reaction)” value in series [2] is given as “A (a % remaining rate of 75% or more)”.

As to `COCCNC(=O)c1ccc(-c2nccs2)c2oc(N3CC4CC(C3)N4)nc12` [Example 353, 2-(3,6-diazabicyclo [3.1.1]heptan-3-yl)-N-(2-methoxyethyl)-7-(thiazol-2-yl) benzo[d] oxazole-4-carboxamide], in series [1], the IC50 was less than 100 nM. Besides, the “Residual ratio (% remaining for 30-minute reaction)” value in series [2] is listed as “A (a % remaining rate of 75% or more)”.

On to `NC(=O)c1ccc(-c2nccs2)c2oc(N3CC4CC(C3)N4)nc12` [Example 354, 2-(3,6-diazabicyclo [3.1.1]heptan-3-yl)-7-(thiazol-2-yl)benzo[d] oxazole-4-carboxamide], for which the IC50 in series [1] was less than 100 nM. Further, the “Residual ratio (% remaining for 30-minute reaction)” value in series [2] was “A (a % remaining rate of 75% or more)”.
